# Data published in patent publication US20070141091A1, “BIGUANIDE OINTMENT AND METHOD OF TREATMENT AND PREVENTION OF INFECTIONS” (priority 2005, published 2007).
# Legend:
# Cytomegalovirus = test: Viral Suspension Assay, Cytomegalovirus; assay type: cell-based
# Experimental: (§1) The Viral Suspension Assay was used to evaluate the antiviral properties of Alexidine against Adenovirus Type-4, Adenovirus Type-8 and Adenovirus Type-19 and Cytomegalovirus when exposed in suspension for 1, 2, 5, and 10 minutes. The presence of virus (infectivity) was determined by monitoring the virus specific cytopathic effect (CPE) on an appropriate indicator cell line, rabbit kidney. Results are reported as Percent (%) Reduction in virus titer as compared to the corresponding virus control titer (Table 1). The titer of the virus controls were 7.5 log10 following the one minute exposure time; 7.0 log10 following the two minute exposure time; and 7.75 log10 following both the five and ten minute exposure times.
# [1] = tested on: Herpes simplex virus type 1; test: HSV-1 Viral Suspension Assay; assay type: cell-based
# Experimental: as §1, with “Herpes simplex virus type 1” for “Adenovirus Type-4, Adenovirus Type-8 and Adenovirus Type-19 and Cytomegalovirus”
# Adenovirus Type-19 = test: Viral Suspension Assay, Adenovirus Type-19; assay type: cell-based; settings: for Percent Reduction (%) Adenovirus type 19: 1, 2, 5 and 10 minutes exposure
# Experimental: as §1
# Adenovirus Type-8 = test: Viral Suspension Assay, Adenovirus Type-8; assay type: cell-based
# Experimental: as §1
# Adenovirus Type-4 = test: Viral Suspension Assay, Adenovirus Type-4; assay type: cell-based
# Experimental: as §1
# Acanthamoeba keratitis [2] = settings: in combination with propamidine isothionate (Brolene), hexamidine (Desomodine), or neomycin; cited from earlier work
# Acanthamoeba keratitis [3] = settings: bilateral case, one treatment per eye; cited from earlier work
# [4] = tested on: experimental Aspergillus keratitis; settings: 0.02%; cited from earlier work
# [5] = Alexidine 30 ppm, 1 minute exposure
# [6] = Alexidine 30 ppm, 2 minutes exposure
# [7] = Alexidine 30 ppm, 10 minutes exposure
# [8] = Alexidine 99 ppm, 1 minute exposure
# [9] = Alexidine 99 ppm, 2 minutes exposure
# [10] = Alexidine 99 ppm, 5 minutes exposure
# [11] = Alexidine 99 ppm, 10 minutes exposure
# [12] = Alexidine 30 ppm, 5 minutes exposure
compound,measurement,setting,value
"CCCCC(CC)CNC(=N)NC(=N)NCCCCCCNC(=N)NC(=N)NCC(CC)CCCC (centres unmarked) [Alexidine, 1,1′-Hexamethylene-bis [5-(2-ethylhexyl)biguanide]]",Percent Reduction (%) Cytomegalovirus,Cytomegalovirus; [5],43.8%
same,Percent Reduction (%) Cytomegalovirus,Cytomegalovirus; [6],68.4%
same,Percent Reduction (%) Cytomegalovirus,Cytomegalovirus; [7],43.8%
same,Percent Reduction (%) Cytomegalovirus,Cytomegalovirus; [8],98.2%
same,Percent Reduction (%) Cytomegalovirus,Cytomegalovirus; [9],99.0%
same,Percent Reduction (%) Cytomegalovirus,Cytomegalovirus; [10],99.8%
same,Percent Reduction (%) Cytomegalovirus,Cytomegalovirus; [11],99.98%
same,"effectiveness against Cytomegalovirus, in words",Cytomegalovirus; at both 30 ppm and 99 ppm,somewhat effective
same,"antimicrobial potency against Herpes Simplex-1, summary in words",[1],potent antimicrobial agent
same,Percent Reduction of Herpes simplex virus type 1,"[1]; Alexidine 30 ppm, 1 minute exposure in suspension, vs virus control titer",99.99%
same,Percent Reduction of Herpes simplex virus type 1,[1]; [6],99.99%
same,Percent Reduction of Herpes simplex virus type 1,[1]; [12],99.9994%
same,Percent Reduction of Herpes simplex virus type 1,[1]; [7],≧100%
same,Percent Reduction of Herpes simplex virus type 1,[1]; [8],99.999%
same,Percent Reduction of Herpes simplex virus type 1,[1]; [9],99.994%
same,Percent Reduction of Herpes simplex virus type 1,[1]; [10],99.9999%
same,Percent Reduction of Herpes simplex virus type 1,[1]; [11],≧100%
same,"effectiveness against herpes simplex type-1 virus (HSV-1), in words",[1]; at both 30 ppm and 99 ppm,effective agents
same,"effectiveness against the tested strain of Adenovirus Type-19, in words",Adenovirus Type-19,did not appear to be effective
same,Percent Reduction (%) Adenovirus type 19,Adenovirus Type-19; Alexidine 30 ppm,No reduction
same,Percent Reduction (%) Adenovirus type 19,Adenovirus Type-19; Alexidine 99 ppm,No reduction
same,Percent Reduction (%) Adenovirus type 8,Adenovirus Type-8; [5],96.8%
same,Percent Reduction (%) Adenovirus type 8,Adenovirus Type-8; [6],94.4%
same,Percent Reduction (%) Adenovirus type 8,Adenovirus Type-8; [12],82.2%
same,Percent Reduction (%) Adenovirus type 8,Adenovirus Type-8; [7],90.0%
same,Percent Reduction (%) Adenovirus type 8,Adenovirus Type-8; [8],82.2%
same,Percent Reduction (%) Adenovirus type 8,Adenovirus Type-8; [9],82.2%
same,Percent Reduction (%) Adenovirus type 8,Adenovirus Type-8; [10],90.0%
same,Percent Reduction (%) Adenovirus type 8,Adenovirus Type-8; [11],90.0%
same,"effectiveness against Adenovirus Type-8, in words",Adenovirus Type-8; at both 30 ppm and 99 ppm,somewhat effective
same,Percent Reduction (%) Adenovirus type 4,Adenovirus Type-4; [5],43.8%
same,Percent Reduction (%) Adenovirus type 4,Adenovirus Type-4; [12],82.2%
same,Percent Reduction (%) Adenovirus type 4,Adenovirus Type-4; [7],68.4%
same,Percent Reduction (%) Adenovirus type 4,Adenovirus Type-4; [8],68.4%
same,Percent Reduction (%) Adenovirus type 4,Adenovirus Type-4; [10],43.8%
same,Percent Reduction (%) Adenovirus type 4,Adenovirus Type-4; [11],68.4%
same,"effectiveness against Adenovirus Type-4, in words",Adenovirus Type-4; at both 30 ppm and 99 ppm,somewhat effective
"N=C(NCCCCCCNC(=N)NC(=N)Nc1ccc(Cl)cc1)NC(=N)Nc1ccc(Cl)cc1 [chlorhexidine gluconate, 1,1′-hexamethylene-bis[5-(p-chlorophenyl)biguanide]]",response of Acanthamoeba keratitis to treatment,Acanthamoeba keratitis [2],respond well
poly(hexamethylene biguanide) [polyhexamethylene biguanide],response of Acanthamoeba keratitis to treatment,Acanthamoeba keratitis [2],respond well
same,treatment of recurrences of Acanthamoeba keratitis,Acanthamoeba keratitis [3],successfully treated
same,efficacy in experimental Aspergillus keratitis,[4],moderately effective
